Values quoted from earlier work in article PMC4585333, “Novel Regulator of Acylated Ghrelin, CF801, Reduces Weight Gain, Rebound Feeding after a Fast, and Adiposity in Mice” (Frontiers in Endocrinology, 2015).

Tests used:
[1] = system: GOAT; settings: microsomal assay; ref [56]; cited from earlier work
Description: An approach was undertaken to design a novel GOAT inhibitor, resulting in a compound we named CF801. The first five amino acids of CF801 derive from studies carried out in 2008 by Yang et al., who examined the inhibitory effect of certain pentapeptides (e.g., GSAFL-NH2) on GOAT using a microsomal assay ([56]). […] In synthesizing CF801, we extended and modified the original GSAFL-NH2 ...

[2] = effects appear similar to those of CF801; ref [74], [75]; cited from earlier work
Procedure: Given the high amino acid similarity between CF801 and desacyl ghrelin, it is possible that CF801 acts like an analog of desacyl ghrelin. […] Alternatively, CF801 may reduce acylated ghrelin simply by reducing GOAT mRNA, and thus acyl ghrelin levels, without altering GOAT activity at least in the way that this is tested in vitro. While the mechanisms underlying these ef ...

[3] = cited from earlier work
Description: One potential target for the control of body weight and appetite is the gut–brain peptide ghrelin. Ghrelin, a 28-amino-acid peptide produced in the X/A-like cells of the gastric oxyntic mucosa lining the stomach, is a key regulator of both short- and long-term energy homeostasis ([1]–[3]). Circulating ghrelin levels rise in anticipation of a meal and subside once the organism is satiated ([4]–[7]).

GSAFL-NH2
inhibitory activity on GOAT [1]: showed inhibitory activity on GOAT

desacyl ghrelin
weight gain, ghrelin secretion and adipose tissue accumulation [2]: decrease in weight gain, ghrelin secretion, and adipose tissue accumulation

ghrelin
feeding after injection ([3]; injections of ghrelin, ref [35]–[37]): vigorous feeding bouts
respiratory exchange ratio (RER) ([3]; mice receiving daily injections of ghrelin, ref [3]): increases in RER
